Test results taken from ChEMBL document CHEMBL5291721, “A preclinical secondary pharmacology resource illuminates target-adverse drug reaction associations of marketed drugs” (Nat Commun, 2023).

What was measured:
Bile salt export pump = Bile salt export pump (Homo sapiens, UniProt O95342); type: functional
[1] = biological target: T1, Alpha-1A adrenergic receptor (Homo sapiens, UniProt P35348); type: functional, cell-based
T1 sequence (P35348 whole entry): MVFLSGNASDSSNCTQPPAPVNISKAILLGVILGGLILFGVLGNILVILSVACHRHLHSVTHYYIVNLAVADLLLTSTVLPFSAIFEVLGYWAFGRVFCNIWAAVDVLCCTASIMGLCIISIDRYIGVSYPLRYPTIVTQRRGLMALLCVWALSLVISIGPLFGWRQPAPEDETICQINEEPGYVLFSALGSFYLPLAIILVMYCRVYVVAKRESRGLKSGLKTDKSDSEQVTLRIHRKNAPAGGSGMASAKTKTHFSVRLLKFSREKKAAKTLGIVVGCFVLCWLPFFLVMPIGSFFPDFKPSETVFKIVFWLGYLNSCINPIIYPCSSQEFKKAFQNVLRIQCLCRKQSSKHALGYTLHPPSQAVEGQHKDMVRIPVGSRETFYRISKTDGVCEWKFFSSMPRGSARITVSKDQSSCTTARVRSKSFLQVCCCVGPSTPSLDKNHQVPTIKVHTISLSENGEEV

Mu-type opioid receptor = Mu-type opioid receptor (Homo sapiens, UniProt P35372)
Mu-type opioid receptor, sequence (P35372 whole entry): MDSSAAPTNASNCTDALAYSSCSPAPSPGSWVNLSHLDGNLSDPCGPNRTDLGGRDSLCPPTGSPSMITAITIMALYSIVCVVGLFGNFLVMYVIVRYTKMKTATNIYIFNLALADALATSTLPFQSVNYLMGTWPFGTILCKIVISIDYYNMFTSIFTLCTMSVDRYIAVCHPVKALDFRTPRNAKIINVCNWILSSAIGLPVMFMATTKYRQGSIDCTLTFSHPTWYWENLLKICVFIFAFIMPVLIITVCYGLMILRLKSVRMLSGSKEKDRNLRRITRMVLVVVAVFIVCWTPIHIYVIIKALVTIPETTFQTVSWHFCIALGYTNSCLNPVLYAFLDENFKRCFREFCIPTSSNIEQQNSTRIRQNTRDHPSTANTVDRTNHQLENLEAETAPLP

[2] = biological target: Sodium-dependent dopamine transporter (Homo sapiens, UniProt Q01959)
Sodium-dependent dopamine transporter, sequence (Q01959 whole entry): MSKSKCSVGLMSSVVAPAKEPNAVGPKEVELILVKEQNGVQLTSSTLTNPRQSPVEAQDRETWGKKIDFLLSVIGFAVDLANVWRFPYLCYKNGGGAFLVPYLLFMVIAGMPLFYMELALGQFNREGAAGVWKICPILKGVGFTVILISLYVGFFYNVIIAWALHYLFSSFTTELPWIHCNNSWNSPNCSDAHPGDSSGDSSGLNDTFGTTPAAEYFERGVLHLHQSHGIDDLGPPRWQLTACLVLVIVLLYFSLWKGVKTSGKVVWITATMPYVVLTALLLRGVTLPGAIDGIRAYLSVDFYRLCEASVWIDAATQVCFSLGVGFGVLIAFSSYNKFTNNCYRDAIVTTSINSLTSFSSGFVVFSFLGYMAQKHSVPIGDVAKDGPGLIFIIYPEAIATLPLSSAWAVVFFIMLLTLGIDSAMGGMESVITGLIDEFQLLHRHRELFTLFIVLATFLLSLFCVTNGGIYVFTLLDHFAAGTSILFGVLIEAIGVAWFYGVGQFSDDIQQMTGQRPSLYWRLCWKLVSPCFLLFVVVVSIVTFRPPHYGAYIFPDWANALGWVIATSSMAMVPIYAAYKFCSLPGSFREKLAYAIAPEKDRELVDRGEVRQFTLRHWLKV

Adenosine receptor A1 = biological target: T2, Adenosine receptor A1 (Homo sapiens, UniProt P30542)
T2 sequence (P30542 whole entry): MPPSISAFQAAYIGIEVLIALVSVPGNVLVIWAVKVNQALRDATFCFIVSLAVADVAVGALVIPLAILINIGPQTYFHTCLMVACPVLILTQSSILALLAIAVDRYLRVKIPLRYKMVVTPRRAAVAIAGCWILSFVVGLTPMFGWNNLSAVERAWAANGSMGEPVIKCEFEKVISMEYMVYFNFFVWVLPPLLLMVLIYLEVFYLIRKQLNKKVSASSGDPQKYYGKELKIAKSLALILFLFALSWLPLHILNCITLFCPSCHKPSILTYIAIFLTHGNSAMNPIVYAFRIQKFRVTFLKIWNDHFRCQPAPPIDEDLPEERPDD

Adenosine receptor A2a = Adenosine receptor A2a (Homo sapiens, UniProt P29274)
Adenosine receptor A2a, sequence (P29274 whole entry): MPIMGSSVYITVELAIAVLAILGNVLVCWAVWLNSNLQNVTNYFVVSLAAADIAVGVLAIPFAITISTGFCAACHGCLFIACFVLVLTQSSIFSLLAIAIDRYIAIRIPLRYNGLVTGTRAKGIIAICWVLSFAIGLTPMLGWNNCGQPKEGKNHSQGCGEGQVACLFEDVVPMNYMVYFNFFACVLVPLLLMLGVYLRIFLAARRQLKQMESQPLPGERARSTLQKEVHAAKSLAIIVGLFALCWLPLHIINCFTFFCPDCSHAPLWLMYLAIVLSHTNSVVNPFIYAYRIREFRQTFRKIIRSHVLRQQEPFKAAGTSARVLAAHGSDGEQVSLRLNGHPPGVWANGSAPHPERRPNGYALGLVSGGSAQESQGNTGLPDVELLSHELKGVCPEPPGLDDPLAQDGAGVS

[3] = biological target: Beta-1 adrenergic receptor (Homo sapiens, UniProt P08588); type: functional
Beta-1 adrenergic receptor, sequence (P08588 whole entry): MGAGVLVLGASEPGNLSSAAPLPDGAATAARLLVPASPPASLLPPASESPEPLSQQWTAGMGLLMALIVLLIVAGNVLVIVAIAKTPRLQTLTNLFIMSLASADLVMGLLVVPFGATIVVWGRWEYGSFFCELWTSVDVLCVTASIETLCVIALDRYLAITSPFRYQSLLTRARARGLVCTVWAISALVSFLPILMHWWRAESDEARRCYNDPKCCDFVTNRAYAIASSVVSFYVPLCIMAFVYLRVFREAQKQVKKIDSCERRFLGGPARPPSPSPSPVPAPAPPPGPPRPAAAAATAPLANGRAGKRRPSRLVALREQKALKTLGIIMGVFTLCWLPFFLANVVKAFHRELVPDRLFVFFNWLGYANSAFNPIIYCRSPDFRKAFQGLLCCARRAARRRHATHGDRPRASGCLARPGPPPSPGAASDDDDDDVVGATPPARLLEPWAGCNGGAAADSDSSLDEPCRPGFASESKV

[4] = biological target: T3, Type-1 angiotensin II receptor (Homo sapiens, UniProt P30556)
T3 sequence (P30556 whole entry): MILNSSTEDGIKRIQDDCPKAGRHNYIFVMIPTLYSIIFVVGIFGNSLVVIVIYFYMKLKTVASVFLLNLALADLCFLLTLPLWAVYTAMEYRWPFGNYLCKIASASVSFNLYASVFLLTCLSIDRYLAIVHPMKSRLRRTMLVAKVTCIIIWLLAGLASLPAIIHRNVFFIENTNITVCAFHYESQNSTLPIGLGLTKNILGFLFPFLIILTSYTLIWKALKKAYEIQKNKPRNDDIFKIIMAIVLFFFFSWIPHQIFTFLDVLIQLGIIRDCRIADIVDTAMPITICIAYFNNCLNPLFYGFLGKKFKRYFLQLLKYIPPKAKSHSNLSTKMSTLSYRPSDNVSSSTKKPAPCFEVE

[5] = biological target: T4, Cholecystokinin receptor type A (Homo sapiens, UniProt P32238)
T4 sequence (P32238 whole entry): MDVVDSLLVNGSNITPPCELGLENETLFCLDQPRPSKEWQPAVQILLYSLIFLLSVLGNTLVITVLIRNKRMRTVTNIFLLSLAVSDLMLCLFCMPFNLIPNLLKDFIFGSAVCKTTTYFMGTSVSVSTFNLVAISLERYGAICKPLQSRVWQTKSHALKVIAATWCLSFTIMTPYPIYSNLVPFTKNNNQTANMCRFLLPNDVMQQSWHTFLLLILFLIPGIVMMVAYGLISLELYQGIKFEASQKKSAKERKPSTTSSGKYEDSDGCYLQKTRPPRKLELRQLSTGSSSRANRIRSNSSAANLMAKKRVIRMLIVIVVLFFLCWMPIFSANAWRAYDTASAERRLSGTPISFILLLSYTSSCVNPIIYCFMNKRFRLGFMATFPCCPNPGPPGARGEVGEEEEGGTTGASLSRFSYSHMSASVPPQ

Cannabinoid receptor 1 = Cannabinoid receptor 1 (Homo sapiens, UniProt P21554); type: functional, cell-based
[6] = biological target: 5-hydroxytryptamine receptor 2A (Homo sapiens, UniProt P28223); type: functional, cell-based
5-hydroxytryptamine receptor 2A, sequence (P28223 whole entry): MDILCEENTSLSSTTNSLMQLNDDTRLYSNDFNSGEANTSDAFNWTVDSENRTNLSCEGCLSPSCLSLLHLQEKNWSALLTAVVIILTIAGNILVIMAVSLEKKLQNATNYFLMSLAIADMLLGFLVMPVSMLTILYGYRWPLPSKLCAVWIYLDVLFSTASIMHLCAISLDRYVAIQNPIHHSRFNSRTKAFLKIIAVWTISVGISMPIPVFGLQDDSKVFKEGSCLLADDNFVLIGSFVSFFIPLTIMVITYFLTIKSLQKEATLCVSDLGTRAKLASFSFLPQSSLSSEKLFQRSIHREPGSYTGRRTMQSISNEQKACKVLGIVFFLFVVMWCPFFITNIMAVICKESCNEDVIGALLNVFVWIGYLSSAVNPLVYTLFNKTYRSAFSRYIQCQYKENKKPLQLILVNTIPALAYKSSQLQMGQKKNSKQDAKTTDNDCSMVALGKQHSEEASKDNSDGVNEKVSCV

[7] = biological target: 5-hydroxytryptamine receptor 2B (Homo sapiens, UniProt P41595); type: functional, cell-based
5-hydroxytryptamine receptor 2B, sequence (P41595 whole entry): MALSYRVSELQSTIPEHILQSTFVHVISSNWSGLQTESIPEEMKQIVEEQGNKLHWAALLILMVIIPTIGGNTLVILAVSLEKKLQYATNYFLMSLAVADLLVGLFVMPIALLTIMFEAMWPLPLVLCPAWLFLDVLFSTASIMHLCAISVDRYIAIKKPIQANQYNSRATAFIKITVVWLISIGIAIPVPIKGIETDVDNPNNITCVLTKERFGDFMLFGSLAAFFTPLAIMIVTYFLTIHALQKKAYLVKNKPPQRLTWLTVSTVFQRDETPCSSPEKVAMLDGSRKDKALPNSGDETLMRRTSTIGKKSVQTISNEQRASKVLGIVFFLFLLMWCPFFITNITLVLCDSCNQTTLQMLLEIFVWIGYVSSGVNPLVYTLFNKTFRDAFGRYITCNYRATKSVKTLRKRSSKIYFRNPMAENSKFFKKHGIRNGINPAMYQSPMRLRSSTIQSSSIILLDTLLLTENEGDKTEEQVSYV

Melanocortin receptor 3 = Melanocortin receptor 3 (Homo sapiens, UniProt P41968)
Melanocortin receptor 3, sequence (P41968 whole entry): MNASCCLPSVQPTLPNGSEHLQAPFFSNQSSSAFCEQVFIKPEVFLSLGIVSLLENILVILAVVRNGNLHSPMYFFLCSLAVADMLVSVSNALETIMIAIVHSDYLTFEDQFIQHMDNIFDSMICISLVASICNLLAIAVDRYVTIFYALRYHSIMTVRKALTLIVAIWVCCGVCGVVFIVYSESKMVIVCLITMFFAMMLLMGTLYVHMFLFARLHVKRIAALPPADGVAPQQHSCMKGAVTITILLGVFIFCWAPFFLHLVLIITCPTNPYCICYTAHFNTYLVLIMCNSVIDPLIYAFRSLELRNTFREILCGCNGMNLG

[8] = biological target: Delta-type opioid receptor (Homo sapiens, UniProt P41143)
Delta-type opioid receptor, sequence (P41143 whole entry): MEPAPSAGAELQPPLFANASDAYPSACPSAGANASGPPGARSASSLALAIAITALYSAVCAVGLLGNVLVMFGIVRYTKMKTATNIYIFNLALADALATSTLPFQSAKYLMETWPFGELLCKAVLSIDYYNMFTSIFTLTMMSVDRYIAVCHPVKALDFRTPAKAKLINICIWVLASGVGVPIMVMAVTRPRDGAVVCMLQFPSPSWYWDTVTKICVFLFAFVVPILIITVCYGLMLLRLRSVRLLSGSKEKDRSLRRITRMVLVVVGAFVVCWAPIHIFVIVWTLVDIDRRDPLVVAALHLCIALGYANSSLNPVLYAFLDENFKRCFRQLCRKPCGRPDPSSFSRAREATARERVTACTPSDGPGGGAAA

[9] = biological target: T5, Equilibrative nucleoside transporter 1 (Homo sapiens, UniProt Q99808)
T5 sequence (Q99808 whole entry): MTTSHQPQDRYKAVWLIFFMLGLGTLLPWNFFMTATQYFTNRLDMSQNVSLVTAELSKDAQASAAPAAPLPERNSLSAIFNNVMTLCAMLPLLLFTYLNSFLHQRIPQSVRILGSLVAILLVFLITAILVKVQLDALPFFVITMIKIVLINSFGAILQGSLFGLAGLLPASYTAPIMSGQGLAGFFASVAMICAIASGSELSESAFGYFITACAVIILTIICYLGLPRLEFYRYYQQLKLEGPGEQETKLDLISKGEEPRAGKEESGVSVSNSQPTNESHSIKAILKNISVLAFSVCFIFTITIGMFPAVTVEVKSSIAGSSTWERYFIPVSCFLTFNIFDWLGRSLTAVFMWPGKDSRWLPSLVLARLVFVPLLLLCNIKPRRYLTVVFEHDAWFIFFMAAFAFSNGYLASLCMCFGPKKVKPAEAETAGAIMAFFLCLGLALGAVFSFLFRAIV
Also: assay procedure not described here.

Bile salt export pump, sequence (O95342 whole entry): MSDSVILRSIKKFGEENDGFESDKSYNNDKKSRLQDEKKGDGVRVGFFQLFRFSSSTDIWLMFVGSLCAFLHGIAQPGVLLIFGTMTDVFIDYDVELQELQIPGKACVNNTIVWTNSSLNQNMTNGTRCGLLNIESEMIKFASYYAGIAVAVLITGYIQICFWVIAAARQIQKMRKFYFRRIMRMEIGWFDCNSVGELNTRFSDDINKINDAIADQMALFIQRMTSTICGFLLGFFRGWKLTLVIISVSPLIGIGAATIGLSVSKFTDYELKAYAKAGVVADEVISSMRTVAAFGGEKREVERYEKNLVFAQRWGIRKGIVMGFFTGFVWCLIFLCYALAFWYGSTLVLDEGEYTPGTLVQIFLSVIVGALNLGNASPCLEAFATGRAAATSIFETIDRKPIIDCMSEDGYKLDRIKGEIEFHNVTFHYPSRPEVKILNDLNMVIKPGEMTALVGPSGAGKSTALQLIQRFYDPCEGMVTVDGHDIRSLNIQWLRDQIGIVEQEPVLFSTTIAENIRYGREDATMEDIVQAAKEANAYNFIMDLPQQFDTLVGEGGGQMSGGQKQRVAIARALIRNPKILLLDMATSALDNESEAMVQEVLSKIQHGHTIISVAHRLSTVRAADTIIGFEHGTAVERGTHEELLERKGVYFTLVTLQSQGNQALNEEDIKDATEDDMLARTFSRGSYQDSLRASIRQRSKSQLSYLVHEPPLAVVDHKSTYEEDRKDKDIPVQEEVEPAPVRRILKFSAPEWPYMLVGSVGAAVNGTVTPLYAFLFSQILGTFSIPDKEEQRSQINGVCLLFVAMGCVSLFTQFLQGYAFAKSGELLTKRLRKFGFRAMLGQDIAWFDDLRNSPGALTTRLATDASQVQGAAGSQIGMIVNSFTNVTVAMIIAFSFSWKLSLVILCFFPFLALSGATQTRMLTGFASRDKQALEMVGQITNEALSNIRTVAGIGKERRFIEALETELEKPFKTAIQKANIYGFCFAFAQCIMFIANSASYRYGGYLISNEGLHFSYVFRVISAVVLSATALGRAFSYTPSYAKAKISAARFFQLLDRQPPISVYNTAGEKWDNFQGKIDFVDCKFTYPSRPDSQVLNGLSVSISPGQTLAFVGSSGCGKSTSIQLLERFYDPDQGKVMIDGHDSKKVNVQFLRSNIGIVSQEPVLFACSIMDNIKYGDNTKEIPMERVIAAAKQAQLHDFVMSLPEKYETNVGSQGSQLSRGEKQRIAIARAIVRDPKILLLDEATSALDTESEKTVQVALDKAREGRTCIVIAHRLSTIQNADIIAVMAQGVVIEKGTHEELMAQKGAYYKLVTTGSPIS

SMILES	AC50 (Bile salt export pump)	AC50 [1]	AC50 (Mu-type opioid receptor)	AC50 [2]	AC50 (Adenosine receptor A1)	AC50 (Adenosine receptor A2a)	AC50 [3]	AC50 [4]	AC50 [5]	AC50 (Cannabinoid receptor 1)	AC50 [6]	AC50 [7]	AC50 (Melanocortin receptor 3)	AC50 [8]	AC50 [9]
C#C[C@]1(O)CC[C@H]2[C@@H]3CCC4=CC(=O)CC[C@@H]4[C@H]3CC[C@@]21CC [LEVONORGESTREL]	94 µM	> 30 µM	> 30 µM	> 30 µM											
O=C1c2c(O)c(=O)ccn2N([C@@H]2c3ccccc3SCc3c2ccc(F)c3F)[C@@H]2COCCN12 [BALOXAVIR]	24 µM	> 30 µM	22 µM	> 30 µM											
N[C@@H](C(=O)N[C@@H]1C(=O)N2C(C(=O)O)=C(Cl)CS[C@H]12)c1ccccc1 [CEFACLOR ANHYDROUS]	> 300 µM				> 30 µM	> 30 µM	> 30 µM	> 30 µM	> 30 µM	> 30 µM	> 30 µM	> 30 µM	> 30 µM	> 30 µM	> 30 µM
OCc1cc([C@@H](O)CNCCCCCCOCCOCc2c(Cl)cccc2Cl)ccc1O [VILANTEROL]	44 µM				> 30 µM	> 30 µM		> 30 µM	> 30 µM	> 30 µM	> 30 µM	> 30 µM	26 µM	> 30 µM	> 30 µM
C[N+]1(C)[C@@H]2C[C@@H](OC(=O)[C@H](CO)c3ccccc3)C[C@H]1[C@@H]1O[C@@H]12 [METHSCOPOLAMINE]	> 300 µM	> 30 µM	> 30 µM	> 30 µM											
O=C(COc1ccc(Cl)cc1)N1CCN(Cc2ccc3c(c2)OCO3)CC1 [FIPEXIDE]	48 µM	13.3 µM	18.4 µM	12.9 µM											
CC(N/C(=N\C#N)Nc1ccncc1)C(C)(C)C (stereo unspecified) [PINACIDIL ANHYDROUS]	290 µM	> 30 µM	> 30 µM	> 30 µM											
O=C1CC[C@@]2(O)[C@H]3Cc4ccc(O)c5c4[C@@]2(CCN3CC2CC2)[C@H]1O5 [NALTREXONE]	> 300 µM	> 30 µM		> 30 µM											
CO/N=C(\C(=O)N[C@@H]1C(=O)N2C(C(=O)[O-])=C(C[N+]3(C)CCCC3)CS[C@H]12)c1csc(N)n1	> 300 µM				> 300 µM	> 300 µM	> 300 µM	> 300 µM	> 300 µM	> 300 µM	> 300 µM	> 300 µM	> 300 µM	> 300 µM	> 300 µM
CCOC(=O)c1ccc(O)cc1 [ETHYLPARABEN]	> 300 µM	> 30 µM	> 30 µM	> 30 µM											
CN1CCCC(n2nc(Cc3ccc(Cl)cc3)c3ccccc3c2=O)CC1 (stereo unspecified) [AZELASTINE]	> 100 µM				> 30 µM	> 30 µM	18 µM	> 30 µM	> 30 µM	> 30 µM	> 30 µM		> 30 µM	> 30 µM	> 30 µM
Cc1c(-c2ccccc2)oc2c(C(=O)OCCN3CCCCC3)cccc2c1=O [FLAVOXATE]	220 µM	6.29 µM	3.05 µM	> 30 µM											
CCCS(=O)(=O)Nc1ccc(F)c(C(=O)c2c[nH]c3ncc(-c4ccc(Cl)cc4)cc23)c1F [VEMURAFENIB]	37 µM				> 30 µM	> 30 µM	> 30 µM	> 30 µM	> 30 µM	> 30 µM	> 30 µM	> 30 µM	> 30 µM	> 30 µM	> 30 µM
CC(C)Cc1ccc(CC(=O)O)cc1 [IBUFENAC]	> 300 µM				> 30 µM	> 30 µM	> 30 µM	> 30 µM	> 30 µM	> 30 µM	> 30 µM	> 30 µM	> 30 µM	> 30 µM	> 30 µM
Sc1ncnc2nc[nH]c12 [MERCAPTOPURINE ANHYDROUS]	> 300 µM	> 30 µM	> 30 µM	> 30 µM											
CC(C)OC(=O)[C@H](C)N[P@](=O)(OC[C@H]1O[C@@H](n2ccc(=O)[nH]c2=O)[C@](C)(F)[C@@H]1O)Oc1ccccc1 [SOFOSBUVIR]	270 µM	> 30 µM	> 30 µM	> 30 µM											
CC(=O)OC[C@H]1O[C@@H](n2ccc(=O)[nH]c2=O)[C@H](OC(C)=O)[C@@H]1OC(C)=O [URIDINE TRIACETATE]	> 300 µM	> 30 µM	> 30 µM	> 30 µM											
CN1CCCC(CN2c3ccccc3Sc3ccccc32)C1 (stereo unspecified) [MEPAZINE]	100 µM	0.391 µM	6.07 µM	27.7 µM											
CN(C)C(=O)Oc1ccc[n+](C)c1 [PYRIDOSTIGMINE]	> 300 µM	> 30 µM	> 30 µM	> 30 µM											
CC(=O)c1ccc2c(c1)N(CCCN1CCN(CCO)CC1)c1ccccc1S2 [ACETOPHENAZINE]	> 300 µM				> 30 µM	> 30 µM		> 30 µM	> 30 µM	> 30 µM	> 30 µM	> 30 µM	> 30 µM	> 30 µM	> 30 µM
NC(=O)c1ncn([C@@H]2O[C@H](CO)[C@@H](O)[C@H]2O)c1O [MIZORIBINE]	> 300 µM				> 30 µM	> 30 µM	> 30 µM	> 30 µM	> 30 µM	> 30 µM	> 30 µM	> 30 µM	> 30 µM	> 30 µM	> 30 µM
CCOC(=O)N[C@@H]1CC[C@@H]2[C@@H](C1)C[C@H]1C(=O)O[C@H](C)[C@H]1[C@H]2/C=C/c1ccc(-c2cccc(F)c2)cn1 [VORAPAXAR]	2.2 µM	> 30 µM	0.82 µM	> 30 µM											
CC(O)CO (stereo unspecified) [PROPYLENE GLYCOL]	> 300 µM	> 30 µM	> 30 µM	> 30 µM											
OC[C@@H](O)[C@@H](O)[C@H](O)[C@H](O)CO [MANNITOL]	> 300 µM	> 30 µM	> 30 µM	> 30 µM											
